Structures can show the parent of a compound that is named as a salt.
How the values were obtained:
human LSD1(172-833) = human LSD1(172-833) (Homo sapiens (Human), UniProt O60341); assay: Measurement of LSD1 inhibitory activity (time-resolved fluorescence, biotin-histone H3 mono methylated K4 peptide); assay type: biochemical
Method in brief: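 Remaining signal detected by TR-FRET after 60 min with europium anti-histone H3 antibody and streptavidin-XL665 in potassium fluoride/0.1% BSA.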

MAO-A enzyme = MAO-A enzyme (Homo sapiens (Human), UniProt P21397); assay: Measurement of MAO-A inhibitory activity (MAO-Glo Assay); assay type: biochemical
Sequence of MAO-A enzyme (P21397 whole entry): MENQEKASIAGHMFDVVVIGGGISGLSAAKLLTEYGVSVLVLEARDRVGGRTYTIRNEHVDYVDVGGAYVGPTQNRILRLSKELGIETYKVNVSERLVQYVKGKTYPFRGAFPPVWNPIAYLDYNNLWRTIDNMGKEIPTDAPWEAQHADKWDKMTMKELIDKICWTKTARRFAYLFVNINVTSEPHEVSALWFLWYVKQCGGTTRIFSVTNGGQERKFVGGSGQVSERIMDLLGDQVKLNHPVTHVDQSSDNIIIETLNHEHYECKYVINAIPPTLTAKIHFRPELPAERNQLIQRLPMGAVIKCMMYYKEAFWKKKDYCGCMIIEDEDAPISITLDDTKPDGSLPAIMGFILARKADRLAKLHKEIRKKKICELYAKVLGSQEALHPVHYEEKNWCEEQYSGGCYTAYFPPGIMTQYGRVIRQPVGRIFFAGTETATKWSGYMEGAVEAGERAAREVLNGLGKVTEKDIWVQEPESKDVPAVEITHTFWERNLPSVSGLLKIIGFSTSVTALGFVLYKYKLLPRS

MAO-B enzyme = MAO-B enzyme (Homo sapiens (Human), UniProt P27338); assay: Measurement of MAO-B inhibitory activity (MAO-Glo Assay); details: read-out: MAO-B IC50 value;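 also: luminescence read-out, compound preincubated 10 min with enzyme then reacted 60 min at room temperature, inhibition relative to enzyme reaction without compound, blank lacking enzyme and compound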
Sequence of MAO-B enzyme (P27338 whole entry): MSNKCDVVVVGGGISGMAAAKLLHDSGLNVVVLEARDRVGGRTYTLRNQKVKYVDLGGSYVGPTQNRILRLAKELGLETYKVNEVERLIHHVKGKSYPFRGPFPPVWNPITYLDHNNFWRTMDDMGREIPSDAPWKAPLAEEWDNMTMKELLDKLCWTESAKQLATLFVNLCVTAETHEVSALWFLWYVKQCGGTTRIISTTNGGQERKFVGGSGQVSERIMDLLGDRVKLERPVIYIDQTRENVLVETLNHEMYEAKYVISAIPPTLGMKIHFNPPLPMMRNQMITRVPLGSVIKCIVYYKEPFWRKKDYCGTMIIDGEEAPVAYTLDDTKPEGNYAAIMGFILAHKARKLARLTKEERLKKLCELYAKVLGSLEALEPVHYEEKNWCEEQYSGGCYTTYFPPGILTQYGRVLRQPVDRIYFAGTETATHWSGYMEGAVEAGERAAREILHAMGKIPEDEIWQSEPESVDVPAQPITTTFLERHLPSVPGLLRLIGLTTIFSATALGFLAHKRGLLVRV
Procedure: The MAO-B inhibitory activity evaluation described below followed the protocol of MAO-Glo (registered trademark) Assay of Promega KK.
A test compound dissolved in 4% DMSO was added by 12.5 μL to 25 μL reaction solution (100 mM HEPES (pH 7.5), 5% glycerol, 10% DMSO) containing 400 ng of MAO-B enzyme (Sigma-Aldrich Co. LLC.), and the mixture was reacted at room temperature for 10 min. […] After reaction at room temperature for 60 min, Luciferine detection reagent (Promega KK) (50 μL) was added to terminate the reaction. After reaction at room temperature for 20 min with stirring, the luminescence was measured by Envision (PerkinElmer). The MAO-B inhibitory rate (%) of the test compound was calculated by the following formula. inhibitory rate(%)=(1−(test compound count−blank)÷(control−blank))×100
The count of the MAO-B enzyme reaction mixture under compound non-addition conditions is indicated as control, and the count under compound non-addition and MAO-B enzyme non-addition conditions is indicated as blank.

Question: Which results are given for O=C(Nc1ccc(Oc2ccc(F)cc2)nc1)c1cccc([C@@H]2C[C@H]2NCC2CC2)c1 (relative stereo) [Example 137, 3-(trans-2-((cyclopropylmethyl)amino)cyclopropyl)-N-(6-(4-fluorophenoxyl)pyridin-3-yl)benzamide bis(trifluoroacetate)]?
Answer: IC50 (human LSD1(172-833)): < 0.1 µM; IC50 (MAO-A enzyme): > 10 µM; IC50 (MAO-B enzyme): > 10 µM

Question: With O=C(Nc1ccc2nccnc2c1)c1cccc([C@@H]2C[C@H]2NCC2CC2)c1 (relative stereo) [Example 143, 3-(trans-2-((cyclopropylmethyl)amino)cyclopropyl)-N-(quinoxalin-6-yl)benzamide bis(trifluoroacetate)] as the molecule, how does the IC50 (human LSD1(172-833)) read?
Answer: < 0.1 µM

Question: What about the IC50 (MAO-A enzyme) of the same molecule?
Answer: 2.1 µM

Question: What about the IC50 (MAO-B enzyme) of the same molecule?
Answer: > 10 µM

Question: What does the source list for O=C(Nc1ccc2ncsc2c1)c1cccc([C@@H]2C[C@H]2NCC2CC2)c1 (relative stereo) [Example 144, N-(1,3-benzothiazol-6-yl)-3-(trans-2-((cyclopropylmethyl)amino)cyclopropyl)benzamide trifluoroacetate]?
Answer: IC50 (human LSD1(172-833)): < 0.1 µM; IC50 (MAO-A enzyme): > 10 µM; IC50 (MAO-B enzyme): > 10 µM

Question: What does the source list for O=C(Nc1ccc2[nH]ncc2c1)c1cccc([C@@H]2C[C@H]2NCC2CC2)c1 (relative stereo) [Example 146, 3-(trans-2-((cyclopropylmethyl)amino)cyclopropyl)-N-(1H-indazol-5-yl)benzamide trifluoroacetate]?
Answer: IC50 (human LSD1(172-833)): < 0.1 µM; IC50 (MAO-A enzyme): > 10 µM; IC50 (MAO-B enzyme): > 10 µM

Question: What does the source list for O=C(Nc1ccc2[nH]c(=O)sc2c1)c1cccc([C@@H]2C[C@H]2NCC2CC2)c1 (relative stereo) [Example 147, 3-(trans-2-((cyclopropylmethyl)amino)cyclopropyl)-N-(2-oxo-2,3-dihydro-1,3-benzothiazol-6-yl)benzamide trifluoroacetate]?
Answer: IC50 (human LSD1(172-833)): < 0.1 µM; IC50 (MAO-A enzyme): > 10 µM; IC50 (MAO-B enzyme): > 10 µM

Question: With CCN1C(=O)COc2cc(NC(=O)c3cccc([C@@H]4C[C@H]4NCC4CC4)c3)ccc21 (relative stereo) [Example 149, 3-(trans-2-((cyclopropylmethyl)amino)cyclopropyl)-N-(4-ethyl-3-oxo-3,4-dihydro-2H-1,4-benzoxazin-7-yl)benzamide trifluoroacetate] as the molecule, how does the IC50 (human LSD1(172-833)) read?
Answer: < 0.1 µM

Question: What about the IC50 (MAO-A enzyme) of the same molecule?
Answer: > 10 µM

Question: And the IC50 (MAO-B enzyme)?
Answer: > 10 µM

Question: With O=C(Nc1cnn(CC(F)(F)F)c1)c1cccc([C@@H]2C[C@H]2NCC2CC2)c1 (relative stereo) [Example 151, 3-(trans-2-((cyclopropylmethyl)amino)cyclopropyl)-N-(1-(2,2,2-trifluoroethyl)-1H-pyrazol-4-yl)benzamide hydrochloride] as the molecule, how does the IC50 (human LSD1(172-833)) read?
Answer: < 0.1 µM

Question: What about the IC50 (MAO-A enzyme) of the same molecule?
Answer: > 10 µM

Question: And the IC50 (MAO-B enzyme)?
Answer: > 10 µM

Question: With Cc1cc(NC(=O)c2cccc([C@@H]3C[C@H]3NCC3CC3)c2)sn1 (relative stereo) [Example 152, 3-(trans-2-((cyclopropylmethyl)amino)cyclopropyl)-N-(3-methyl-1,2-thiazol-5-yl)benzamide hydrochloride] as the molecule, how does the IC50 (human LSD1(172-833)) read?
Answer: < 0.1 µM

Question: What about the IC50 (MAO-A enzyme) of the same molecule?
Answer: > 10 µM

Question: What about the IC50 (MAO-B enzyme) of the same molecule?
Answer: > 10 µM

Question: CC(C)(C)CN[C@@H]1C[C@H]1c1cccc(C(=O)NC2CC(F)(F)C2)c1 (relative stereo) [Example 154, N-(3,3-difluorocyclobutyl)-3-(trans-2-((2,2-dimethylpropyl)amino)cyclopropyl)benzamide hydrochloride] was tested. Which IC50 (human LSD1(172-833)) did it give?
Answer: < 0.1 µM

Question: And the IC50 (MAO-A enzyme)?
Answer: > 10 µM

Question: What about the IC50 (MAO-B enzyme) of the same molecule?
Answer: > 10 µM

Question: How did the IC50 (human LSD1(172-833)) turn out when Cc1nnc(NC(=O)c2cccc([C@@H]3C[C@H]3NCC(C)(C)C)c2)s1 (relative stereo) [Example 158, 3-(trans-2-((2,2-dimethylpropyl)amino)cyclopropyl)-N-(5-methyl-1,3,4-thiadiazol-2-yl)benzamide dihydrochloride] was run?
Answer: < 0.1 µM

Question: And the IC50 (MAO-A enzyme)?
Answer: > 10 µM

Question: And the IC50 (MAO-B enzyme)?
Answer: > 10 µM

Question: For O=C(Nc1cnn(-c2ccc(F)cc2)c1)c1cccc([C@@H]2C[C@H]2NC2CCOCC2)c1 (relative stereo) [Example 196, N-(1-(4-fluorophenyl)-1H-pyrazol-4-yl)-3-(trans-2-(tetrahydro-2H-pyran-4-ylamino)cyclopropyl)benzamide dihydrochloride], which IC50 (human LSD1(172-833)) is on record?
Answer: < 0.1 µM

Question: And the IC50 (MAO-A enzyme)?
Answer: > 10 µM

Question: And the IC50 (MAO-B enzyme)?
Answer: > 10 µM

Question: What does the source list for O=C(Nc1cnn(-c2ccc(F)cc2)c1)c1cccc([C@@H]2C[C@H]2NC2CCS(=O)(=O)CC2)c1 (relative stereo) [Example 197, 3-(trans-2-((1,1-dioxidotetrahydro-2H-thiopyran-4-yl)amino)cyclopropyl)-N-(1-(4-fluorophenyl)-1H-pyrazol-4-yl)benzamide dihydrochloride]?
Answer: IC50 (human LSD1(172-833)): < 0.1 µM; IC50 (MAO-A enzyme): > 10 µM; IC50 (MAO-B enzyme): > 10 µM

Question: With O=C(NC1CCCC1)c1cccc([C@@H]2C[C@H]2NC2CCN(C3CC3)CC2)c1 (relative stereo) [Example 199, N-cyclopentyl-3-(trans-2-((1-cyclopropylpiperidin-4-yl)amino)cyclopropyl)benzamide dihydrochloride] as the molecule, how does the IC50 (human LSD1(172-833)) read?
Answer: < 0.1 µM

Question: And the IC50 (MAO-A enzyme)?
Answer: > 10 µM

Question: And the IC50 (MAO-B enzyme)?
Answer: > 10 µM

Question: For CN1CCC(N[C@@H]2C[C@H]2c2cccc(C(=O)NC3CCCC3)c2)CC1 (relative stereo) [Example 200, N-cyclopentyl-3-(trans-2-((1-methylpiperidin-4-yl)amino)cyclopropyl)benzamide dihydrochloride], which IC50 (human LSD1(172-833)) is on record?
Answer: < 0.1 µM

Question: What about the IC50 (MAO-A enzyme) of the same molecule?
Answer: > 10 µM

Question: What about the IC50 (MAO-B enzyme) of the same molecule?
Answer: > 10 µM

Question: For O=C(Nc1cnn(CC2CC2)c1)c1cccc([C@@H]2C[C@H]2NC2CCC2)c1 (relative stereo) [Example 201, 3-(trans-2-(cyclobutylamino)cyclopropyl)-N-(1-(cyclopropylmethyl)-1H-pyrazol-4-yl)benzamide dihydrochloride], which IC50 (human LSD1(172-833)) is on record?
Answer: < 0.1 µM

Question: And the IC50 (MAO-A enzyme)?
Answer: > 10 µM

Question: What about the IC50 (MAO-B enzyme) of the same molecule?
Answer: > 10 µM

Question: What does the source list for CN1CCC(N[C@@H]2C[C@H]2c2cccc(C(=O)Nc3cnn(CC4CC4)c3)c2)CC1 (relative stereo) [Example 202, N-(1-(cyclopropylmethyl)-1H-pyrazol-4-yl)-3-(trans-2-((1-methylpiperidin-4-yl)amino)cyclopropyl)benzamide trihydrochloride]?
Answer: IC50 (human LSD1(172-833)): < 0.1 µM; IC50 (MAO-A enzyme): > 10 µM; IC50 (MAO-B enzyme): > 10 µM

Question: For O=C(Nc1cnn(CC2CC2)c1)c1cccc([C@@H]2C[C@H]2NC2CCC(F)(F)CC2)c1 (relative stereo) [Example 204, N-(1-(cyclopropylmethyl)-1H-pyrazol-4-yl)-3-(trans-2-((4,4-difluorocyclohexyl)amino)cyclopropyl)benzamide dihydrochloride], which IC50 (human LSD1(172-833)) is on record?
Answer: < 0.1 µM

Question: What about the IC50 (MAO-A enzyme) of the same molecule?
Answer: > 10 µM

Question: What about the IC50 (MAO-B enzyme) of the same molecule?
Answer: > 10 µM

Question: How did the IC50 (human LSD1(172-833)) turn out when O=C(NC1CCC(F)(F)CC1)c1cccc([C@@H]2C[C@H]2NC2CCN(C3CC3)CC2)c1 (relative stereo) [Example 208, 3-(trans-2-((1-cyclopropylpiperidin-4-yl)amino)cyclopropyl)-N-(4,4-difluorocyclohexyl)benzamide dihydrochloride] was run?
Answer: < 0.1 µM

Question: And the IC50 (MAO-A enzyme)?
Answer: > 10 µM

Question: What about the IC50 (MAO-B enzyme) of the same molecule?
Answer: > 10 µM

Question: Which IC50 (human LSD1(172-833)) does the source give for Cc1ncc(NC(=O)c2cccc([C@@H]3C[C@H]3NC3CCC3)c2)s1 (relative stereo) [Example 210, 3-(trans-2-(cyclobutylamino)cyclopropyl)-N-(2-methyl-1,3-thiazol-5-yl)benzamide dihydrochloride] here?
Answer: < 0.1 µM

Question: What about the IC50 (MAO-A enzyme) of the same molecule?
Answer: > 10 µM

Question: And the IC50 (MAO-B enzyme)?
Answer: > 10 µM

Question: How did the IC50 (human LSD1(172-833)) turn out when Cc1ncc(NC(=O)c2cccc([C@@H]3C[C@H]3NC3CCC(F)(F)CC3)c2)s1 (relative stereo) [Example 211, 3-(trans-2-((4,4-difluorocyclohexyl)amino)cyclopropyl)-N-(2-methyl-1,3-thiazol-5-yl)benzamide dihydrochloride] was run?
Answer: < 0.1 µM

Question: What about the IC50 (MAO-A enzyme) of the same molecule?
Answer: > 10 µM

Question: What about the IC50 (MAO-B enzyme) of the same molecule?
Answer: > 10 µM

Question: Cc1cc(NC(=O)c2cccc([C@@H]3C[C@H]3NC3CCC(F)(F)CC3)c2)on1 (relative stereo) [Example 216, 3-(trans-2-((4,4-difluorocyclohexyl)amino)cyclopropyl)-N-(3-methyl-1,2-oxazol-5-yl)benzamide hydrochloride] was tested. Which IC50 (human LSD1(172-833)) did it give?
Answer: < 0.1 µM

Question: And the IC50 (MAO-A enzyme)?
Answer: > 10 µM

Question: And the IC50 (MAO-B enzyme)?
Answer: > 10 µM

Question: What does the source list for O=C(Nc1cnn(Cc2ccc(F)cc2)c1)c1cccc([C@@H]2C[C@H]2NC2CCOCC2)c1 (relative stereo) [Example 217, N-(1-(4-fluorobenzyl)-1H-pyrazol-4-yl)-3-(trans-2-(tetrahydro-2H-pyran-4-ylamino)cyclopropyl)benzamide dihydrochloride]?
Answer: IC50 (human LSD1(172-833)): < 0.1 µM; IC50 (MAO-A enzyme): > 10 µM; IC50 (MAO-B enzyme): > 10 µM

Question: Which IC50 (human LSD1(172-833)) does the source give for CC(=O)N1CCC(N[C@@H]2C[C@H]2c2cccc(C(=O)Nc3cnn(Cc4ccc(F)cc4)c3)c2)CC1 (relative stereo) [Example 218, 3-(trans-2-((1-acetylpiperidin-4-yl)amino)cyclopropyl)-N-(1-(4-fluorobenzyl)-1H-pyrazol-4-yl)benzamide dihydrochloride] here?
Answer: < 0.1 µM

Question: And the IC50 (MAO-A enzyme)?
Answer: > 10 µM

Question: What about the IC50 (MAO-B enzyme) of the same molecule?
Answer: > 10 µM

Question: What does the source list for O=C(NCC(c1ccccc1)N1CCOCC1)c1ccc(C2CC2NCC2CC2)cc1 (stereo not drawn) [Example 24, 4-(trans-2-((cyclopropylmethyl)amino)cyclopropyl)-N-(2-(morpholin-4-yl)-2-phenylethyl)benzamide bis(trifluoroacetate)]?
Answer: IC50 (human LSD1(172-833)): < 0.1 µM; IC50 (MAO-A enzyme): > 10 µM; IC50 (MAO-B enzyme): > 10 µM

Source: patent US9751885B2, “Cyclopropanamine compound and use thereof” (Takeda Pharmaceutical Company Limited, priority 2012, dated 2017)
